Assays:
[1] = test system: other structurally similar kinases; conditions: cited from earlier work
[2] = test system: GSK-3; conditions: literature radiotracers; SB-216763 in rodents and non-human primates; cited from earlier work
[3] = Determination of Log D7.4 (1-octanol/PBS shake flask, gamma counting); assay type: physicochemical; conditions: 1-octanol / PBS buffer pH 7.4, n=7
Method: The measurement of lipophilicity was carried out using literature procedure. Purified and reformulated [^11C] labelled compound (1) (˜50 μL) was added to a separating funnel containing PBS buffer (pH 7.4) and 1-octanol (pre-saturated with PBS buffer) (˜20 mL each). The octanol layer was collected and dispensed into 8 centrifuge tubes (2 mL each) containing PBS buffer (2 mL each). The tubes were mixed by vortex for 2 min and then centrifuged for 5 min. Approximately 0.5 mL of the octanol layer and 1.0 mL of the aqueous from each centrifuge tube was then transferred to pre-weighed test tubes (16 in total). The tubes were capped and assayed using an automated gamma counter. The tubes were then uncapped and weighed to determine the total volume of the liquid in each. The log D7.4 of [^11C] labelled compound (1) was determined to be 2.14 (n=7).

[4] = test system: GSK-3; assay: PET imaging in rat; assay type: in vivo; conditions: rat (n=1), bolus i.v., at 1-2 min
[5] = test system: GSK-3; assay: PET imaging in rhesus monkeys; assay type: in vivo; conditions: for brain penetration and specific binding (in words): PET imaging in animals / non-human primate brain
Method: To determine the in vivo distribution and pharmacokinetic profile of compound (1) in higher species of nonhuman primates, compound (1) was radiolabelled with carbon-11 and the permeability of compound (1) was evaluated in the living brain using positron emission tomography. [^11C] labelled compound (1) was synthesized in 5% uncorrected radiochemical yield (relative to [^11C]CO2) by reaction of the corresponding phenolic precursor in the presence of tetrabutylammonium hydroxide in DMF with [^11C]CH3I with specific activity >2 Ci/μmol (n=15).
Bolus i.v. administration of [^11C]-labelled compound (1) in rhesus monkeys (5-7 mCi) reached a whole brain peak uptake (2 SUV) with fairly uniform brain distribution followed by a fast clearance (1 SUV at 40 min). […] Liang et al., “Discovery of [^11C]PF-367 for neuroimaging of glycogen synthase kinase 3”, J. Nucl. Med., 2015, 56(Supp. 3), 491.

Compound | selectivity against other structurally similar kinases (in words) [1] | brain uptake in vivo (in words) [2] | logD [3] | maximum uptake [4] | brain penetration and specific binding (in words) ([5]; listed as 11C-isotopologue of compound (1)) | brain penetration and specific binding (in words) ([5]; listed as [^11C] labelled compound (1)) | whole brain peak uptake ([5]; rhesus monkeys, bolus i.v., 5-7 mCi, baseline) [SUV] | brain uptake at 40 min (clearance) ([5]; rhesus monkeys, bolus i.v., baseline, 40 min) [SUV] | peak uptake ([5]; rhesus monkeys, co-administration with unlabelled compound (1) 0.1 mg/kg) [SUV] | binding at 40 min in all brain regions ([5]; rhesus monkeys, co-administration with unlabelled compound (1) 0.1 mg/kg, 40 min) [SUV]
[11CH3]n1cc(C2=C(c3ccc(Cl)cc3Cl)C(=O)NC2=O)c2ccccc21 [[^11C]SB-216763] | not selective | good brain uptake | – | – | – | – | – | – | – | –
[11CH3]Oc1ccc(-c2ocnc2C(=O)NCCCn2cncn2)cc1Cl [compound (2), N-(3-(1H-1,2,4-Triazol-1-yl)propyl)-5-(3-chloro-4-[^11C]methoxyphenyl)oxazole-4-carboxamide] | – | – | 2.14 | about 1 SUV | high brain permeability and specificity | confirmed brain penetration and displaceable specific binding | 2 | 1 | 3.5 | 0.3
